# Results published in paper PMC3914206.
# Key:
# Format in all cases: binding
# Conditions in all cases: Compound Concentration 10 µM
# panel of 442 kinases [1] = target: T1, panel of 442 kinases (Homo sapiens, UniProt P48729)
# T1 construct: purchased KINOMEscan
# From the text: (§1) We assessed the selectivity of members of this scaffold using the KINOMEscan methodology across a near comprehensive panel of 442 kinases [[18,27]].
# panel of 442 kinases [2] = target: T2, panel of 442 kinases (Homo sapiens, UniProt P08631)
# T2 construct: purchased KINOMEscan
# T2 sequence (P08631 whole entry): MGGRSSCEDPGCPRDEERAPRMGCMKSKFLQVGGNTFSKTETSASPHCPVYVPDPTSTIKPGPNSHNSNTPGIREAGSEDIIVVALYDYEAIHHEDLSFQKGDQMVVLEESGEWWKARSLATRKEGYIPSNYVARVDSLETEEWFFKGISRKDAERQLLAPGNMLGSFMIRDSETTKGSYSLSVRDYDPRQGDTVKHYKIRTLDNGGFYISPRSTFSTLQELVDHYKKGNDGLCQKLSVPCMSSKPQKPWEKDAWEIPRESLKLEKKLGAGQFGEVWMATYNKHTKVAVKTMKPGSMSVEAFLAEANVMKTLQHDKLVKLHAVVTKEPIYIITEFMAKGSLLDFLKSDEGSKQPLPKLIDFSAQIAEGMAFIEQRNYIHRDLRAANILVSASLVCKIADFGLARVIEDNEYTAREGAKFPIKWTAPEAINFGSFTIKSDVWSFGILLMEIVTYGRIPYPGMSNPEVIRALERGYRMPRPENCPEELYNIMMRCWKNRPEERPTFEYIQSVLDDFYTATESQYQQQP
# From the text: as §1
# panel of 442 kinases [3] = target: T3, panel of 442 kinases (Homo sapiens, UniProt P10721, D816V)
# T3 construct: purchased KINOMEscan
# T3 sequence (P10721 26-976 D816V): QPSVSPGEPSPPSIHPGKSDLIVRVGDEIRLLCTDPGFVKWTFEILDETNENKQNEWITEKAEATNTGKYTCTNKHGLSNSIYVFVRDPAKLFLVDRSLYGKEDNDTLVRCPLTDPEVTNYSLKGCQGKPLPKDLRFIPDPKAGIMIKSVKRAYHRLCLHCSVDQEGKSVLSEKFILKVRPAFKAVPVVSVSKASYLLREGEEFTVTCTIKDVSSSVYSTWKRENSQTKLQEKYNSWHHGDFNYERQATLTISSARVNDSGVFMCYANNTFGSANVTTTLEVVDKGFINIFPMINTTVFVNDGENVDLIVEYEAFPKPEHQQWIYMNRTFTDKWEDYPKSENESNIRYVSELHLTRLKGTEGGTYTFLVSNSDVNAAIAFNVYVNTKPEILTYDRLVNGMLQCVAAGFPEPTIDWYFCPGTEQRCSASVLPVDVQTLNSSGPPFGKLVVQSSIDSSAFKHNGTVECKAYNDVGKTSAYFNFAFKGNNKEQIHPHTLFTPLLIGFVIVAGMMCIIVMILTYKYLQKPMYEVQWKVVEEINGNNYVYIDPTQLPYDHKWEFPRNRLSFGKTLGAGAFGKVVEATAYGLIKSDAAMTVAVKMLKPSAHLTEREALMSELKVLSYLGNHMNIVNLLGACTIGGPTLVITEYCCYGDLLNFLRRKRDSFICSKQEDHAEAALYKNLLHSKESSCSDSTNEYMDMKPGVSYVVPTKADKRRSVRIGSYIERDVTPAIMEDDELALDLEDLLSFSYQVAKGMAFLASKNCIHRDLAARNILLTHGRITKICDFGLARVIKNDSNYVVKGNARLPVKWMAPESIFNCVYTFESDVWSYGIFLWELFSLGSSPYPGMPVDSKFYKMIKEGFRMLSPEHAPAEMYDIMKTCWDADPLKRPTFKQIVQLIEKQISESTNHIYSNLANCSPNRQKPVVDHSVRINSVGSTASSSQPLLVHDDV
# From the text: as §1
# panel of 442 kinases [4] = target: T4, panel of 442 kinases (Homo sapiens, UniProt P10721, A829P)
# T4 construct: purchased KINOMEscan
# T4 sequence (P10721 26-976 A829P): as the sequence (P10721 26-976 D816V) above, with V791D, A804P counted along it
# From the text: as §1
# T1 sequence (P48729 whole entry): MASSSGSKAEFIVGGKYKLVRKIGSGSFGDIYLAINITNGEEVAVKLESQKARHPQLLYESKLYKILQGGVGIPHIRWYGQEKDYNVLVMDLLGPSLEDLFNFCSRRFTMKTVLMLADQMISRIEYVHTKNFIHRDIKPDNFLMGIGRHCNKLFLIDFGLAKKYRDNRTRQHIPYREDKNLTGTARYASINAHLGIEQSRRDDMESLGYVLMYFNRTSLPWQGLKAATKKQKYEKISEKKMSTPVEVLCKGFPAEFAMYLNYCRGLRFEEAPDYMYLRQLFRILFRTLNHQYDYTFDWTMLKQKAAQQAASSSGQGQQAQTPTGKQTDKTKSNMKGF
SMILES,KINOMEscan: CSNK1A1 (panel of 442 kinases [1]),KINOMEscan: HCK (panel of 442 kinases [2]),KINOMEscan: KIT(D816V) (panel of 442 kinases [3]),KINOMEscan: KIT(A829P) (panel of 442 kinases [4])
CCOc1cc(C(=O)N2CCC(N3CCN(C)CC3)CC2)ccc1Nc1ncc2c(n1)N(C1CCCC1)c1ccccc1C(=O)N2C [Compound 26],100,100,96,74
"COc1cc(C(=O)N2CCC(N3CCN(C)CC3)CC2)ccc1Nc1ncc2c(n1)N(C1CCCC1)c1ccccc1C(=O)N2C [Compound 25, 11-cyclopentyl-2-((2-methoxy-4-(4-(4-methylpiperazin-1-yl)piperidine-1-carbonyl)phenyl)amino)-5-methyl-5H-benzo[e]pyrimido[5,4-b][1,4]diazepin-6(11H)-one]",100,97,92,95
COc1cc(C(=O)N2CCC(N3CCN(C)CC3)CC2)ccc1Nc1ncc2c(n1)N(C)c1ccccc1C(=O)N2C [15 (LRRK2-IN-1)],100,100,72,100
